According to article PMC9757636, “The effectiveness of newly synthesized quaternary ammonium salts differing in chain length and type of counterion against priority human pathogens” (Scientific Reports, 2022):

How the values were obtained:
S. aureus MRSA R98 = assay: MIC/MBC microdilution; assay type: cell-based, Staphylococcus aureus; conditions: Staphylococcus aureus, MRSA; for MBC: 99.9% reduction, read-out: Minimal bactericidal concentration (*MBC); for MIC: 24 h, 37 °C, >90% growth inhibition, read-out: Minimal inhibitory concentration (MIC)
Method: (§1) The minimum inhibitory concentration (MIC) of the tested monomeric QAS was performed using the microdilution method according to CLSI recommendation (M27-A3). Concentrations from 10 to 1280 µM were analyzed. Strains were incubated with or without compounds (growth control) for 24 h at 37 °C. Three independent replicates were performed. The MIC value was determined spectrophotometrically and the concentration that inhibited more than 90% of growth was determined. Optical density was measured at λ = 590 nm using a 96-well microplate reader (Bio-Rad Universal Hood II).
(§2) To determine the minimum bactericidal concentration (MBC), 10 µL of bacterial suspension incubated with monomeric QAS (MIC concentration and two times higher) was transferred to plates with LB (1% tryptone, 1% yeast extract, 0.5% NaCl) medium. […] The concentration that reduced 99.9% of microbial growth was determined as MBC[54].

S. aureus ATCC 6538 = assay: MIC/MBC microdilution; assay type: cell-based, Staphylococcus aureus; conditions: Staphylococcus aureus; for MIC: ATCC6538, 24 h, S. aureus ATCC 6538, 24 h, 37 °C, >90% growth inhibition, read-out: Minimal inhibitory concentration (MIC); for MBC: ATCC6538, S. aureus ATCC 6538, 99.9% reduction, read-out: Minimal bactericidal concentration (*MBC)
Method: as §1, §2

P. aeruginosa ATCC 27853 = assay: MIC/MBC microdilution; assay type: cell-based, Pseudomonas aeruginosa; conditions: Pseudomonas aeruginosa; for MIC: ATCC27853, 24 h, P. aeruginosa ATCC 27853, 24 h, 37 °C, >90% growth inhibition, read-out: Minimal inhibitory concentration (MIC); for MBC: ATCC27853, P. aeruginosa ATCC 27853, 99.9% reduction, read-out: Minimal bactericidal concentration (*MBC)
Method: as §1, §2

P. aeruginosa PAO1 [1] = assay: MIC/MBC microdilution; assay type: cell-based, Pseudomonas aeruginosa; conditions: Pseudomonas aeruginosa; for MBC: 99.9% reduction, read-out: Minimal bactericidal concentration (*MBC); for MIC: 24 h, 37 °C, >90% growth inhibition, read-out: Minimal inhibitory concentration (MIC)
Method: as §1, §2

[2] = tested on: Salmonella typhimurium TA98; assay: Mutagenicity (Ames test); assay type: cell-based; conditions: for Number of colonies: ± SD
Method: (§3) Two reference strains of Salmonella Typhimurium TA98 and Salmonella Typhimurium TA100, deficient in histidine synthesis, were used for this study according to the method proposed by Ames et al. with modifications. […] The mixture was mixed and poured onto a Davis minimal medium plate. The mixture without the test compound was used as a negative control. The positive control was a mixture of bacterial culture, biotin-histidine solution, and sodium azide (at a concentration of 15 μg/mL for strain TA100) or acriflavine (at a concentration of 100 μg/mL for strain TA98). Plates were incubated for 48 h at 37 °C, and then colonies were counted. The mutagenicity ratio (MR), the ratio of the number of revertants grown in the presence of the test compound to the number of spontaneously occurring revertants (negative control), was calculated. A mutagenic ratio equal to or greater than 1.7 indicates the mutagenic potential of the tested compounds. The study was performed in three times.

[3] = tested on: Salmonella typhimurium TA100; assay: Mutagenicity (Ames test); assay type: cell-based; conditions: for Number of colonies: ± SD
Method: as §3

E. coli ATCC 11229 = assay: MIC/MBC microdilution; assay type: cell-based, Escherichia coli
Method: as §1, §2

E. coli H64 = assay: MIC/MBC microdilution; assay type: cell-based, Escherichia coli; conditions: Escherichia coli; for MIC: H64, 24 h, E. coli H64, 24 h, 37 °C, >90% growth inhibition, read-out: Minimal inhibitory concentration (MIC); for MBC: H64, E. coli H64, 99.9% reduction, read-out: Minimal bactericidal concentration (*MBC)
Method: as §1, §2

P. aeruginosa PAO1 [4] = assay: Adhesion to stainless steel; assay type: cell-based, Pseudomonas aeruginosa; conditions: P. aeruginosa PAO1; 1280 µM
S. epidermidis B374 = assay: MIC/MBC microdilution; assay type: cell-based, Staphylococcus epidermidis
Method: as §1, §2

[5] = tested on: S. epidermidis ATCC 35984; assay: MIC/MBC microdilution; assay type: cell-based, Staphylococcus epidermidis; conditions: Staphylococcus epidermidis; for MBC: ATCC35984, 99.9% reduction, read-out: Minimal bactericidal concentration (*MBC); for MIC: ATCC35984, 24 h, 37 °C, >90% growth inhibition, read-out: Minimal inhibitory concentration (MIC)
Method: as §1, §2

S. epidermidis SI8 = assay: MIC/MBC microdilution; assay type: cell-based, Staphylococcus epidermidis; conditions: Staphylococcus epidermidis; for MBC: 99.9% reduction, read-out: Minimal bactericidal concentration (*MBC); for MIC: 24 h, 37 °C, >90% growth inhibition, read-out: Minimal inhibitory concentration (MIC)
Method: as §1, §2

[6] = tested on: S. epidermidis ATCC 35984; assay: Adhesion to stainless steel; assay type: cell-based, Staphylococcus epidermidis; conditions: 1280 µM
[7] = Critical micelle concentration by conductometric measurements; assay type: physicochemical; conditions: aqueous solution, 25 °C
Method: Values of critical micelle concentrations (CMC) of cationic surfactants were measured conductrometrically. N5721 conductometer (Tel-Eko Projekt sp z o.o., Poland), equipped with N5981 probe, was calibrated using 0.1 M, 0.01 M and 0.001 M KCl aqueous solutions (conductivities equal to 1.287 S/m, 0.141 S/m and 0.0147 S/m, respectively) and used without temperature compensation mode (constant temperature 25 °C was kept during all calibration procedures and measurements). Values of specific conductivities of at least 15 different concentrations for each surfactant were measured and plotted versus concentration; the discontinuity point was used to determine critical micelle concentration.

[8] = tested on: S. epidermidis ATCC 35984 biofilm; assay: Biofilm eradication; assay type: cell-based, Staphylococcus epidermidis; conditions: 10 µM, 4 h
Method: (§4) Biofilm eradication assay was performed according to the method of Christensen et al. with modifications. A standardized bacterial (OD = 0.6) suspension of 100 µL was spotted into a 96-well polystyrene plate. They were incubated for 24 h at 37 °C. Cultures were removed, the plate was washed and then concentrations of QAS ([…]) were added, incubated for 4 h at 37 °C with 100 rpm shaking. The wells were washed with miliQ and fixed at 60 °C for 20 min. The wells were […] with 0.1% crystal violet solution for 5 min. The wells were washed with miliQ until the unfixed dye was completely eluted. The absorbance at λ = 590 nm was measured using a reader (Bio-Rad Universal Hood II). The positive control was an untreated biofilm. Three independent test trials were performed.

[9] = tested on: S. epidermidis B374 biofilm; assay: Biofilm eradication; assay type: cell-based, Staphylococcus epidermidis; conditions: 160 µM, 4 h
Method: as §4

Structure (SMILES) | MBC (S. aureus MRSA R98) [µM] | MIC (S. aureus MRSA R98) [µM] | MIC (S. aureus ATCC 6538) [µM] | MBC (S. aureus ATCC 6538) [µM] | MIC (P. aeruginosa ATCC 27853) [µM] | MBC (P. aeruginosa ATCC 27853) [µM] | MBC (P. aeruginosa PAO1 [1]) [µM] | MIC (P. aeruginosa PAO1 [1]) [µM] | Mutagenicity index ([2]; ¼ MIC) | Number of colonies ([2]; ¼ MIC) | Mutagenicity index ([2]; ½ MIC) | Number of colonies ([2]; ½ MIC) | Mutagenicity index ([3]; ¼ MIC) | Number of colonies ([3]; ¼ MIC) | Mutagenicity index ([3]; ½ MIC) | Number of colonies ([3]; ½ MIC) | MIC (E. coli H64) [µM] | MBC (E. coli H64) [µM] | MBC [5] [µM] | MIC [5] [µM] | further results
CC(=O)[O-].CCCCCCCCCCCC(=O)N(C)CCC[N+](C)(C)C [AcC12] | 640 | 640 | 1280 | 1280 | > 1280 | > 1280 | > 1280 | > 1280 | 0.96 | 22 ± 5.3 | 0.91 | 20.8 ± 4.4 | 0.94 | 264.7 ± 15 | 1.08 | 304 ± 11.3 | 1280 | 1280 | 640 | 640 | MIC (E. coli ATCC 11229; Escherichia coli, ATCC11229, 24 h, E. coli ATCC 11229, 24 h, 37 °C, >90% growth inhibition, read-out: Minimal inhibitory concentration (MIC)): 1280 µM; MBC (E. coli ATCC 11229; Escherichia coli, ATCC11229, E. coli ATCC 11229, 99.9% reduction, read-out: Minimal bactericidal concentration (*MBC)): 1280 µM; adhesion to stainless steel (remaining) (P. aeruginosa PAO1 [4]): 13 to 30%; MIC (S. epidermidis B374; Staphylococcus epidermidis, B374, 24 h, S. epidermidis B374, 24 h, 37 °C, >90% growth inhibition, read-out: Minimal inhibitory concentration (MIC)): 320 µM; MBC (S. epidermidis B374; Staphylococcus epidermidis, B374, S. epidermidis B374, 99.9% reduction, read-out: Minimal bactericidal concentration (*MBC)): 320 µM; MBC (S. epidermidis SI8): 640 µM; MIC (S. epidermidis SI8): 640 µM; adhesion to stainless steel (remaining) [6]: 13 to 30%; CMC [7]: 0.018 mol/L; biofilm destruction [8]: approximately 40%
CC(=O)[O-].CCCCCCCCCCCCCC(=O)N(C)CCC[N+](C)(C)C [AcC14, [(3-tetradecyilomethylo-amine)propyl] trimethylammonium acetate] | 160 | 160 | 160 | 160 | 1280 | > 1280 | > 1280 | > 1280 | 0.96 | 24.5 ± 3.5 | 1.01 | 25.7 ± 4 | 0.97 | 194 ± 1 | 0.95 | 189 ± 1.4 | 160 | 160 | 160 | 160 | Minimal bactericidal concentration (*MBC) (E. coli ATCC 11229; E. coli ATCC 11229, 99.9% reduction): 320 *320 µM; Minimal inhibitory concentration (MIC) (E. coli ATCC 11229; E. coli ATCC 11229, 24 h, 37 °C, >90% growth inhibition): 320 *320 µM; Minimal bactericidal concentration (*MBC) (S. epidermidis B374; S. epidermidis B374, 99.9% reduction): 40 *40 µM; Minimal inhibitory concentration (MIC) (S. epidermidis B374; S. epidermidis B374, 24 h, 37 °C, >90% growth inhibition): 40 *40 µM; MBC (S. epidermidis SI8): 160 µM; MIC (S. epidermidis SI8): 160 µM; adhesion to stainless steel (remaining) [6]: 15%; CMC [7]: 0.0054 mol/L; biofilm eradication [9]: 70–80%
